Measured values published in the NIST ThermoML archive (doi:10.1021/je060490w).
“And” between values parts separate entries of the source, which are not always exact repeats. Equal entries are not always repeated.

Assays:
[1] = for surface tension liquid-gas: Pendant drop shape; for mass density: 101.33 kPa, Liquid
[2] = xn = mol fraction of the nth substance listed; conditions: Pendant drop shape

Cc1cc(C)cc(C)c1 [1,3,5-trimethylbenzene]
[1]
Conditions	mass density [kg/m3]	surface tension liquid-gas [mN/m]
298.15 K	861.12	28.05
308.15 K	852.94	27.21
313.15 K	848.82	26.78

Cc1cc(C)cc(C)c1 [1,3,5-trimethylbenzene] + CCOC(C)OCC
[2], x2 = 0
Conditions	surface tension liquid-gas [mN/m]
298.15 K	28.05
308.15 K	27.21
313.15 K	26.78

Cc1ccc(C)c(C)c1 [1,2,4-trimethylbenzene]
[1]
Conditions	mass density [kg/m3]	surface tension liquid-gas
298.15 K	871.71	29.3 mN/m
308.15 K	863.68	28.24 mN/m
313.15 K	859.58	27.67 mN/m and 27.71 mN/m

COC(C)(C)OC [3,3-dimethyl-2,4-dioxapentane] + Cc1ccc(C)c(C)c1
[2]
Conditions	surface tension liquid-gas [mN/m]
298.15 K, x1 = 0.0523	28.69
298.15 K, x1 = 0.0998	28.17
298.15 K, x1 = 0.1497	27.62
298.15 K, x1 = 0.1996	27.12
298.15 K, x1 = 0.2517	26.6
298.15 K, x1 = 0.3009	26.13
298.15 K, x1 = 0.3494	25.68
298.15 K, x1 = 0.3987	25.24
298.15 K, x1 = 0.4502	24.79
298.15 K, x1 = 0.4994	24.37
298.15 K, x1 = 0.5498	23.95
298.15 K, x1 = 0.5996	23.55
298.15 K, x1 = 0.6508	23.17
298.15 K, x1 = 0.6997	22.82
298.15 K, x1 = 0.7498	22.51
298.15 K, x1 = 0.7992	22.24
298.15 K, x1 = 0.8508	22
298.15 K, x1 = 0.8997	21.79
298.15 K, x1 = 0.9489	21.62
298.15 K, x1 = 1	21.46
308.15 K, x1 = 0.0515	27.59
308.15 K, x1 = 0.0998	27.02
308.15 K, x1 = 0.1499	26.47
308.15 K, x1 = 0.2001	25.95
308.15 K, x1 = 0.2475	25.5
308.15 K, x1 = 0.302	24.97
308.15 K, x1 = 0.3512	24.53
308.15 K, x1 = 0.3995	24.12
308.15 K, x1 = 0.4485	23.66
308.15 K, x1 = 0.4989	23.23
308.15 K, x1 = 0.5542	22.77
308.15 K, x1 = 0.5998	22.4
308.15 K, x1 = 0.6518	22.02
308.15 K, x1 = 0.6987	21.69
308.15 K, x1 = 0.7455	21.44
308.15 K, x1 = 0.7962	21.11
308.15 K, x1 = 0.851	20.86
308.15 K, x1 = 0.8973	20.71
308.15 K, x1 = 0.9456	20.55
308.15 K, x1 = 1	20.43
313.15 K, x1 = 0.0506	27.03
313.15 K, x1 = 0.0996	26.42
313.15 K, x1 = 0.1509	25.86
313.15 K, x1 = 0.1994	25.36
313.15 K, x1 = 0.2511	24.87
313.15 K, x1 = 0.3032	24.38
313.15 K, x1 = 0.3475	23.95
313.15 K, x1 = 0.3981	23.52
313.15 K, x1 = 0.4501	23.07
313.15 K, x1 = 0.5	22.66
313.15 K, x1 = 0.5487	22.25
313.15 K, x1 = 0.5993	21.84
313.15 K, x1 = 0.6504	21.45
313.15 K, x1 = 0.6993	21.12
313.15 K, x1 = 0.7486	20.8
313.15 K, x1 = 0.7987	20.51
313.15 K, x1 = 0.8417	20.31
313.15 K, x1 = 0.8929	20.12
313.15 K, x1 = 0.9487	19.97
313.15 K, x1 = 1	19.91
